From patent publication US20230114123A1, “METHOD OF STIMULATING ASYMMETRIC DIVISION OF SATELLITE STEM CELLS” (Ottawa Hospital Research Institute, priority 2017, published 2023)

Key:
Assay type in all cases: cell-based, mouse
satellite stem cells = assay: EDL myofiber culture, satellite stem cell divisions (Myf5-Cre/R26R-eYFP, wild type); conditions: for Average number of asymmetric divisons/fiber / Proportion of YFP- divisions that are asymmetric divisions: WT myofibers, 42 h of culture
Protocol: EGFR Signaling Regulates Asymmetric Satellite Stem Cell Divisions. To assess the role of EGFR in asymmetric division, the inventors cultured satellite cells in myofibers isolated from Extensor digitorum longus (EDL) muscles from Myf5-Cre/R26R-eYFP mice and performed both loss-of-function and gain-of-function experiments. Isolated myofibers were first cultured for 42 h with and without treatment with the Lapatinib, a specific inhibitor of EGFR signaling.
(§1) EDL fiber Culture and siRNA Transfection. Myofiber culture was performed as described in Dumont, N. A., et al. “Dystrophin expression in muscle stem cells regulates their polarity and asymmetric division.” Nat. Med. (2015) 21:1455-63, which is incorporated herein by reference. Briefly, EDL were carefully dissected and incubated in DMEM with 2% L-glutamine, 4.5% glucose, and 110 mg/mL sodium pyruvate (Gibco) containing 0.2% collagenase I (Sigma) for 45 min. Myofibers were isolated using gentle trituration with a glass pipet. Myofibers were cultured for 36, 42, or 72 h in DMEM containing 20% FBS (Wisent), 1% chick embryo extract (MP Biomedicals), and 2.5 ng/ml bFGF (Cedarlane). For pharmacological inhibition, Lapatinib ditosylate (1 mM in DMSO; Santa
(§2) Cruz Biotechnology), PTP1b inhibitor CAS 765317-72-4 (10 mM in DMSO; Santa Cruz Biotechnologies) was added to the culture medium for a final concentration of 1 μM or 10 μM, respectively; equal dilution of DMSO was used as vehicle control.
Transfection of satellite cells on myofibers was performed using lipofectamine RNAimax (Life Technologies) and validated Smartpool siRNAs for EGFR, Aurka, or scramble (SCR) (Dharmacon). Two transfections were performed at 4 h and 16 h after isolation of the myofibers as described in Le Grand, et al. (2009) Wnt7a activates the planar cell polarity pathway to drive the symmetric expansion of satellite stem cells. Cell Stem Cell 4, pp 535-547, which is incorporated herein by reference. Knockdown efficiencies of the siRNA were validated in myoblasts by western blot and qRT-PCR.

[1] = tested on: dystrophin-deficient satellite stem cells; assay: EDL myofiber culture, satellite stem cell divisions (mdx Myf5-Cre/R26R-eYFP); conditions: for Average number of asymmetric divisons/fiber / Proportion of YFP- divisions that are asymmetric divisions: mdx myofibers, 42 h of culture
Protocol: as §1, §2

satellite cell divisions = assay: FDB myofiber screening method validation (YFP(-) divisions); conditions: for percentage of YFP(-) divisions that were symmetric divisions: control 62% (Wnt7a experiment), control 45% (EGF / PTP1b experiment); for percentage of YFP(-) divisions that were asymmetric divisions: control treated cells 55%
Excerpt: EGFR pathway activators may be identified in a method of screening potential activators. The method includes visualizing isolated, cultured, and stained Flexor Digitorum Brevis (FDB) myofibers from Myf5-Cre/ROSA26-YFP mice in a plurality of Z-stack planes to create a projection image. Muscle satellite cells are identified in the projection image based on Pax7 expression. Of the identified muscle satellite cells: (i) satellite stem cells are identified based on the absence of YFP expression, and (ii) committed satellite progenitor cells are identified based on yellow fluorescence protein (YFP) expression. A potential EGFR pathway activator is administered to the FDB myofibers. The number of symmetric divisions of satellite myogenic cells, identified by the production of two YFP(+) satellite cells, are counted; the number of symmetric satellite stem cell divisions, identified by the production of two YFP(−) satellite cells, are counted; and the number of asymmetric satellite cell divisions, identified by the production of one YFP(+) and one YFP(−) satellite cell, are counted. The potential EGFR pathway activator is identified as an EGFR pathway activator when the percent of YFP(−) divisions that are asymmetric divisions is greater than the corresponding percent in a control sample. The expression “YFP(−) divisions” refers to all cell divisions where one of the daughter cells is YFP(−).
Identification of EGFR pathway activators. Flexor Digitorum brevis (FDB) fibers were isolated from Myf5-Cre/Rosa-YFP mice and digested in 0.25% Collagenase Type I (Sigma) in DMEM (Dulbecco's modified Eagle's medium; high glucose, L-glutamine with 110 mg/ml sodium pyruvate) for 2.5-3 h. Myofibers were dissociated using gentle trituration with a glass pipette.
Myofibers are cultured at 37° C., 5% CO2 for 42 h in myofiber culture media (DMEM supplemented with 20% FBS(Wisent), 1% Chicken Embryo extract (MP Biomediacals), 1% Penicillin/Streptomycin (Cederlane) and 2.5 ng/ml basic Fibroblast Growth Factor (Cedarlane).
Myofibers are first fixed in 2% Paraformaldehyde (PFA) for 5 mins. Myofibers are blocked for 1-2 h in 1% Bovine Serum Albumin, 0.5% TritonX-100, 5% HS and 0.01% Sodium Azide. Primary antibodies are applied in blocking solution for 2 h at room temperature or at 4° C. overnight. Myofibers are washed with PBS and stained with appropriate fluorescently labeled secondary antibodies (Alexa Fluor 488, 546) for 1 hat room temperature. Following washing with PBS, fiber nuclei are stained with DAPI for 5 min. The following antibodies are used: mouse anti-Pax7 (Developmental Studies Hybridoma Bank (DSHB)), chicken anti-GFP (cat. no. ab13970, Abcam).
Satellite cells are focused based on Channel 3 (DAPI) staining. Autofocus is performed by sampling seven (7) z-stacks taken at […] intervals for an extended depth of field of 85.3 μm.
Z-stack images were consolidated to create a projection image with all satellite cells in focus. Image acquisition of a projection image for analysis was created from seven (7) Z-stack images taken at 6.5 μm intervals, for an extended depth of field of 45.5 μm at 200 (Objective 20×) magnification. The projection direction was centered, where the median stacks fall within the center of each myofiber. […]
Potential satellite cells were first identified based on Channel 1 (Pax7) signal, and separated from other satellite cells based on intensity of fluorescence between cells. […]

[2] = 42 h culture, recombinant EGF vs vehicle, FIG. 4A

Row | Compound | Average number of asymmetric divisons/fiber (satellite stem cells) | Proportion of YFP- divisions that are asymmetric divisions (satellite stem cells) [%] | Average number of asymmetric divisons/fiber [1] | Proportion of YFP- divisions that are asymmetric divisions [1] [%] | percentage of YFP(-) divisions that were symmetric divisions (satellite cell divisions) [%] | percentage of YFP(-) divisions that were asymmetric divisions (satellite cell divisions) [%] | increase in the rate of asymmetric satellite stem cell division (satellite stem cells; 42 h culture, recombinant EGF 100 ng/mL vs vehicle, FIG. 2A) [fold] | increase in asymmetric division, WT satellite cells (satellite stem cells; [2]) [%] | increase in the rate of asymmetric division, mdx satellite cells [1, 2] [%] | increase in the absolute number of asymmetric satellite stem cell divisions, mdx ([1]; 42 h of myofiber culture, FIG. 4B) [fold]
1 | CCc1oc2cc(S(=O)(=O)Nc3ccc(S(=O)(=O)Nc4nccs4)cc3)ccc2c1C(=O)c1cc(Br)c(O)c(Br)c1 [PTP1b inhibitor, 3-(3,5-dibromo-4-hydroxy-benzoyl)-2-ethyl-benzofuran-6-sulfonicacid-(4-(thiazol-2-ylsulfamyl)-phenyl)-amide, reference compound] | 0.988 | 66.70 | 0.463 | 33.33 | 33 | 67 | – | – | – | –
2 | EGF: human recombinant EGF protein (Life Technologies), direct activator of the EGFR pathway | 0.939 | 70.86 | 0.436 | 34.60 | 29 | 71 | 2.5 | 29 | 67 | 2
